Tests used:
[1] = method code SF-HPLC, from DOI: 10.1584/jpestics.11.469
[2] = method code SF-RC, from DOI: 10.1016/j.nucmedbio.2005.06.001, PMID: 16253804; conditions: pH 7.4
[3] = method code SF-RC, from DOI: 10.1002/syn.21606, PMID: 22927303; conditions: pH 7.4
[4] = method code SF-HPLC, from DOI: 10.1016/j.apradiso.2007.04.014, PMID: 17574425; conditions: pH 7.4
[5] = not given; remark: listed apart in the source
[6] = method code SF-HPLC, from DOI: 10.1016/j.bmc.2011.11.059, PMID: 22189276; conditions: pH 7.4
[7] = method code SF-AS, from DOI: 10.1016/0223-5234(94)90120-1; conditions: pH 7.4
[8] = method code SF-AS, from DOI: 10.1002/jps.2600720808, PMID: 6620139
[9] = method code SF-AS, from DOI: 10.1021/jm9807104, PMID: 10514282; conditions: pH 7.0
[10] = method code SF-AS, from PMID: 8053967; conditions: pH 7.4
[11] = method code SF-AS, from DOI: 10.1021/jf970979g, PMID: 10554305
[12] = not given; remark: listed apart in the source
[13] = not given; remark: listed apart in the source
[14] = method code SF-AS, from DOI: 10.1002/jps.2600610435, PMID: 5014327
[15] = method code SF-AS, from DOI: 10.1023/a:1018977225919, PMID: 10554109; conditions: pH 3.5
[16] = method code SF-ESR, from DOI: 10.1515/znc-1987-7-832, PMID: 2961152
[17] = not given; remark: listed apart in the source
[18] = method code SF-HPLC, from DOI: 10.1039/p29890001935
[19] = not given; remark: listed apart in the source
[20] = not given; remark: listed apart in the source
[21] = method code SF-GLC, from DOI: 10.1023/a:1015803202857, PMID: 2395795
[22] = method code SF-RC, from DOI: 10.1021/jm070025+, PMID: 17411026; conditions: pH 7.4
[23] = not given; remark: listed apart in the source
[24] = not given; remark: listed apart in the source
[25] = method code SF-RC, from DOI: 10.1021/jm301492y, PMID: 23214511; conditions: pH 7.4
[26] = from Courrière, P.; Paubel, J.P.; Nivière, P.; Foussard-Blaspin, O. (1978). Structure-activity study in a series of local anesthetic agents. I. Physicochemical properties and molecular orbital study. …
[27] = not given; remark: listed apart in the source
[28] = method code SF-AS, from DOI: 10.1080/1071576031000148736, PMID: 14567446
[29] = not given; remark: listed apart in the source
[30] = not given; remark: listed apart in the source

CCOC(=O)C(C)Oc1ccc(Oc2cnc3cc(F)ccc3n2)cc1 (stereo not given)
logP [1]: 3.65

CNc1ccc(C=Cc2ccc(OCCOCCOCCF)cc2)cc1
logD [2]: 2.41

CCc1cc2cc(C(=O)C3CCC(OC)CC3)ccc2nc1C (stereo not given)
logD [3]: 3.38

O=C(CCl)Nc1cc2c(Nc3cc(Cl)c(Cl)cc3F)ncnc2cc1OCCOCCOCCOCCF
logD [4]: 4.64

C[C@]12CC[C@@H](O)C[C@@H]1CC[C@@H]1[C@@H]2CC[C@]2(C)[C@@H](O)CC[C@@H]12
logP: 4.16

CSc1nc(NCc2cccc(Cl)c2)c2cnn(CC(Cl)c3ccccc3)c2n1 (stereo not given)
logP [5]: 5.87

CCOC(=O)COC(=O)NCCCC(C)Nc1cc(OC)cc2cccn12 (stereo not given)
logD [6]: 3.09

CCc1cc2cc(C(=O)C3CCC(OC)CC3)ccc2nc1F (stereo not given)
logD [3]: 3.54

S=C1SCN(CCc2ccccc2)CN1CCc1ccccc1
logD [7]: 5.3

CCCCC[C@](C)(O)/C=C/C1[C@H](O)C[C@H](O)[C@@H]1C/C=C\CCCC(=O)OC (stereo not given in full)
logP [8]: 3.21

CNc1ccc(C=Cc2ccc(OCCOCCF)cc2)cc1
logD [2]: 2.52

COC(=O)C(C)NP(=O)(Oc1ccc(C)cc1)OC1C=CC(n2cc(C)c(=O)[nH]c2=O)O1 (stereo not given)
logD [9]: 1.19

O=C(CCN1CCOCC1)CN1C(=O)CC2(CCc3ccccc32)C1=O (stereo not given)
logD [10]: 1.26

CC(NC1=CC(=O)C(NC(C)c2ccccc2)=CC1=O)c1ccccc1 (stereo not given)
logP [11]: 0.98

COc1cc2nc(N(C)CCCNC(=O)C3CCCO3)nc(N)c2cc1OC (stereo not given)
logP [12]: 1.93

CCN(CC)C(=O)Nc1ccc(OCC(O)CNC(C)(C)C)c(C(C)=O)c1 (stereo not given)
logP [13]: 1.92

COc1cc(C(=O)NC2CCCC3CN(C)CCC32)cc(OC)c1OC (stereo not given)
logP [14]: -0.3

CCCCCCOC(=O)NCCCC(C)Nc1cc(OC)cc2cccnc12 (stereo not given)
logD [6]: 3.02

COc1cc(C(=O)OC2CCC[C@@H]3CN(C)CC[C@H]23)cc(OC)c1OC (stereo not given in full)
logP [14]: 0.58

CCCCCC(O)C=CC1C(O)CC(=O)C1CCCCCCC(=O)O (stereo not given)
logD [15]: 3.12

CC1(C)CC(N(CCN(C(=O)N(CCCl)N=O)C2CC(C)(C)N(O)C(C)(C)C2)C(=O)N(CCCl)N=O)CC(C)(C)N1O
logP [16]: 2.35

C#C[C@]1(O)CC[C@H]2[C@@H]3CCc4cc(O)ccc4[C@H]3[C@@H](CC)C[C@@]21C
logP [17]: 4.28

FC(F)(F)c1ccccc1C1OCC2ON=C(c3ccccc3)C2CO1 (stereo not given)
logP [18]: 4.31

O=C1CC[C@@]2(O)[C@H]3Cc4ccc(O)c5c4[C@@]2(CCN3CC2CC2)[C@H]1O5
logP [19]: 1.12

S=C1SCN(CCc2ccccc2)CN1Cc1ccccc1
logD [7]: 4.7

CC1(C)C=C(C(=O)NCCCN2C(=O)c3ccccc3C2=O)C(C)(C)N1
logP [20]: 1.63

COC(=O)C(C)NP(=O)(OCC1C=CC(n2cc(C)c(=O)[nH]c2=O)O1)Oc1ccc(OC(C)=O)cc1 (stereo not given)
logD [9]: 1.01

OC(CCN1CCCCC1)(c1ccccc1)C1CC2C=CC1C2 (stereo not given)
logP [21]: 4.25

CNc1ccc(/C=C/c2cnc(OCCOCCOCCF)c(I)c2)cc1
logD [22]: 2.54

CO[C@@]12CCC(=O)[C@@H]3Oc4c(O)ccc5c4[C@@]31CCN(C)[C@@H]2C5
logP [23]: 0.6

COC(=O)C1=C(C)NC(C)=C(C(=O)OCC(C)C)C1c1cccc([N+](=O)[O-])c1 (stereo not given)
logP [12]: 3.23

O=C(CCl)Nc1cc2c(Nc3cc(Cl)c(Cl)cc3F)ncnc2cc1OCCOCCF
logD [4]: 4.3

CC1(C)CC(N(C(=O)N(CCCl)N=O)C2CC(C)(C)N(O)C(C)(C)C2)CC(C)(C)N1O
logP [16]: 1.63

C[C@]12CC[C@H](O)CC1=CC[C@@H]1[C@@H]2CC[C@]2(C)C(=O)CC[C@@H]12
logP: 3.23

CO[C@@]12CCC(=O)[C@]3(C)Oc4c(O)ccc5c4[C@@]31CCN(C)[C@@H]2C5
logP [23]: 1.12

C=CCN1CC[C@]23c4c5ccc(O)c4O[C@H]2C(=O)CC[C@@]3(O)[C@H]1C5
logP [19]: 1.53

C[C@H](CCC(=O)O)[C@H]1CC[C@H]2[C@@H]3CC[C@@H]4C[C@H](O)CC[C@]4(C)[C@H]3C[C@H](O)[C@]12C
logD [15]: 3.5

COc1ccc(-c2oc3c(CC=C(C)C)c(O)cc(O)c3c(=O)c2O)cc1
logP [24]: 6.07

O=C(NC1CCCCC1)c1ccc(O)c(-c2ccccc2)c1
logD [25]: 2.85

COc1ccc(C(C)NCCC(c2ccccc2)c2ccccc2)cc1OC (stereo not given)
logP [20]: 5.74

CC(NC1=CC(=O)C(NC(C)C(O)c2ccccc2)=CC1=O)C(O)c1ccccc1 (stereo not given)
logP [11]: 1.42

O=C(CCN1CCOCC1)CN1C(=O)CC2(CCCc3ccccc32)C1=O (stereo not given)
logD [10]: 1.63

CCCCCCNC(=O)c1ccc(O)c(-c2ccccc2)c1
logD [25]: 3.67

CN(C)c1ccc(/C=C/c2cnc(OCCOCCOCCF)c(I)c2)cc1
logD [22]: 2.59

Cc1cccc(C)c1N(CCCN(C)C)C(=O)/C=C/c1ccccc1
logP [26]: 5.27

CSc1nc(NCCc2ccccc2)c2cnn(C(Cl)c3ccc(Cl)cc3)c2n1 (stereo not given)
logP [5]: 6.54

CC(C)(C)NCC(COc1nsnc1N1CCOCC1)OC(=O)c1ccccc1COC(=O)c1ccccc1 (stereo not given)
logP [27]: 4.37

O=C(O)c1ccccc1C1c2cc(Cl)c(O)cc2Oc2cc(O)c(Cl)cc21
logP [28]: 2.62

Cc1cccc(C)c1N(CCCN(C)C)C(=O)Cc1ccccc1
logP [26]: 4.9

CNc1nc(NCCCN(C)C)c2sc(-c3ccc(C(=O)C(F)(F)F)cc3)cc2n1
logP [29]: 4.6

Cc1ccccc1C1OCC2ON=C(c3ccccc3)C2CO1 (stereo not given)
logP [18]: 2.72

CC(=O)Oc1cc2c(cc1Cl)C(c1ccccc1C(=O)O)c1cc(Cl)c(OC(C)=O)cc1O2
logP [28]: 3.51

CCCCCCCC(=O)OC(CNC(C)(C)C)COc1nsnc1N1CCOCC1 (stereo not given)
logP [27]: 4.66

N#Cc1ccc2c(c1)N(CCCN1CCC(O)CC1)c1ccccc1S2
logP [13]: 3.89

CCOC(=O)C(C)Oc1ccc(Oc2cnc3cc(C)ccc3n2)cc1 (stereo not given)
logP [1]: 4.11

CNc1nc(NCCCN(C)C)c2sc(-c3cccc(C(=O)C(F)(F)F)c3)cc2n1
logP [29]: 4.3

O=C(CCCN1CCC(O)(c2ccc(Cl)cc2)CC1)c1ccc(F)cc1
logP [21]: 3.23

Cc1cccc(OC(=O)N(C)SN(C)C(=O)Oc2ccc3c(c2)OCO3)c1
logP [30]: 2.66

COc1ccc(-c2oc3c(CC=C(C)C)c(O)cc(O)c3c(=O)c2O[C@@H]2O[C@@H](C)[C@H](O)[C@@H](O)[C@H]2O)cc1
logP [24]: 5.11

CCCCC[C@H](O)/C=C/[C@@H]1[C@@H](C/C=C\CCCC(=O)O)[C@@H](O)C[C@H]1O
logP [8]: 2.72

From the SangsterLogP compilation
